Patent US10927123B2, “Modulators of the beta-3 adrenergic receptor useful for the treatment or prevention of disorders related thereto” (Arena Pharmaceuticals, Inc., priority 2016, dated 2021)

These molecules were tested against Beta-3 Adrenergic Receptor (Homo sapiens (Human), UniProt P13945) (assay: HTRF cAMP antagonist assay (IC50 determination)). Details: CHO-K1 cells stably expressing recombinant receptor; antagonism of isoproterenol at EC90; cAMP readout.
Assay type: cell-based
Protocol: HTRF cAMP assays were performed according to manufacturer's instructions (Cisbio, cAMP Dynamic 2 Assay Kit; #62AM4PEJ). CHO-K1 cells stably expressing recombinant receptor were harvested and suspended in warm PBS to make a 300,000 cells/mL stock. This cell suspension was dispensed into 384 well assay plates (PerkinElmer ProxiPlate #6008280) at 5 μL per well (1500 cells/well) along with a cAMP standard curve.
Compounds were dissolved and serially diluted (5-fold) in DMSO to generate a 10-point dose response stock. The stock was then diluted 100-fold in assay buffer (PBS containing 1 mM IBMX) before a volume of 2.5 μL was added to the cells (the final, top concentration of compound in the dose-response is typically 10 or 100 μM). After a brief incubation, 2.5 μL of isoproterenol stock, prepared at a concentration 4 times its EC90 at the receptor of interest, was added to the wells. The EC90 for isoproterenol, a beta-adrenergic agonist, was determined in separate experiments using standard methods to measure agonist potencies.
Following a 1-hour incubation at room temperature, 5 μL of cAMP-D2 Reagent diluted in Lysis Buffer was added to each well followed by 5 μL of Cryptate Reagent. Plates were further incubated at room temperature for 1 hour prior to reading. Time resolved fluorescence measurements were collected on a suitable, HTRF-capable plate reader.
Counts from the plate reader were fit to the cAMP standard curve on the assay plate in order to determine cAMP concentrations in each well, and these values were used to construct dose-response curves to obtain IC50 values.

Beta-3 Adrenergic Receptor, sequence (P13945 whole entry, species assumed): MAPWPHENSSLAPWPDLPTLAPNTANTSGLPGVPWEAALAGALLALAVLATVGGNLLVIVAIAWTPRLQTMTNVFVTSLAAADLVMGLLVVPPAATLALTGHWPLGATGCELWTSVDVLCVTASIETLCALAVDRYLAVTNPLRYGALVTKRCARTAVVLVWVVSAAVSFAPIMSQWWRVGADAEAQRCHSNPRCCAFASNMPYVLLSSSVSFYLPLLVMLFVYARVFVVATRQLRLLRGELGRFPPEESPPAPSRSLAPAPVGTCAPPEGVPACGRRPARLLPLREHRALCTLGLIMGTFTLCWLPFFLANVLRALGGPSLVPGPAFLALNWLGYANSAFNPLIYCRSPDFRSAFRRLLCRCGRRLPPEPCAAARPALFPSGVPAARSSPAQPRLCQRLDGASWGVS

| SMILES | IC50 |
| --- | --- |
| O=S(=O)(c1cccc(OC[C@@H](O)CN[C@H]2COC3(CCN(S(=O)(=O)c4cnc5cc(F)ccc5c4O)CC3)C2)c1)C1CC1 [Compound 329, 3-((R)-3-((S)-3-(3-(cyclopropylsulfonyl)phenoxy)-2-hydroxypropylamino)-1-oxa-8-azaspiro[4.5]decan-8-ylsulfonyl)-7-fluoroquinolin-4-ol] | 0.0295 µM |
| O=S(=O)(c1cccc(-c2ccc(CN3CCOCC3)cc2)c1)N1CCC2(CC1)C[C@H](NC[C@H](O)COc1cccc(S(=O)(=O)C3(CO)CC3)c1)CO2 [Compound 246, (S)-1-(3-(1-(hydroxymethyl)cyclopropylsulfonyl)phenoxy)-3-((S)-8-(4′-(morpholinomethyl)biphenyl-3-ylsulfonyl)-1-oxa-8-azaspiro[4.5]decan-3-ylamino)propan-2-ol] | 0.0483 µM |
| O=S(=O)(c1cnc2c(c1)CCCO2)N1CCC2(CC1)C[C@@H](NC[C@H](O)COc1cccc(S(=O)(=O)C3(CO)CC3)c1)CO2 [Compound 284, (S)-1-((R)-8-(3,4-dihydro-2H-pyrano[2,3-b]pyridin-6-ylsulfonyl)-1-oxa-8-azaspiro[4.5]decan-3-ylamino)-3-(3-(1-(hydroxymethyl)cyclopropylsulfonyl)phenoxy)propan-2-ol] | 0.106 µM |
| O=S(=O)(CCO)c1cccc(OC[C@@H](O)CN[C@@H]2COC3(CCN(S(=O)(=O)c4ccc5ccccc5c4)CC3)C2)c1 [Compound 34, (S)-1-(3-(2-hydroxyethylsulfonyl)phenoxy)-3-((S)-8-(naphthalen-2-ylsulfonyl)-1-oxa-8-azaspiro[4.5]decan-3-ylamino)propan-2-ol] | 0.0312 µM |
| Cc1cccc(-c2cccc(S(=O)(=O)N3CCC4(CC3)C[C@H](NC[C@H](O)COc3cccc(S(=O)(=O)CCO)c3)CO4)c2)n1 [Compound 120, (5)-1-(3-(2-hydroxyethylsulfonyl)phenoxy)-3-((S)-8-(3-(6-methylpyridin-2-yl)phenylsulfonyl)-1-oxa-8-azaspiro[4.5]decan-3-ylamino)propan-2-ol] | 0.177 µM |
| CCOc1ccc(-c2ccc(CN)cc2)cc1S(=O)(=O)N1CCC2(CC1)C[C@@H](NC[C@H](O)COc1cccc(S(=O)(=O)C3(CO)CC3)c1)CO2 [Compound 158, (S)-1-((R)-8-(4′-(aminomethyl)-4-ethoxybiphenyl-3-ylsulfonyl)-1-oxa-8-azaspiro[4.5]decan-3-ylamino)-3-(3-(1-(hydroxymethyl)cyclopropylsulfonyl)phenoxy)propan-2-ol] | 0.0273 µM |
| CCOc1ccc(-c2ccc(C3(N)CC3)cc2)cc1S(=O)(=O)N1CCC2(CC1)C[C@@H](NC[C@H](O)COc1cccc(S(=O)(=O)CC)c1)CO2 [Compound 257, (S)-1-((R)-8-(4′-(1-aminocyclopropyl)-4-ethoxybiphenyl-3-ylsulfonyl)-1-oxa-8-azaspiro[4.5]decan-3-ylamino)-3-(3-(ethylsulfonyl)phenoxy)propan-2-ol] | 0.0378 µM |
| CCOc1ccc(-c2ccc(CCN)cc2)cc1S(=O)(=O)N1CCC2(CC1)C[C@H](NC[C@H](O)COc1cccc(S(=O)(=O)C3(CO)CC3)c1)CO2 [Compound 214, (S)-1-((S)-8-(4′-(2-aminoethyl)-4-ethoxybiphenyl-3-ylsulfonyl)-1-oxa-8-azaspiro[4.5]decan-3-ylamino)-3-(3-(1-(hydroxymethyl)cyclopropylsulfonyl)phenoxy)propan-2-ol] | 0.0367 µM |
| CC(C)Oc1ccc(-c2ccc(CN)cc2)cc1S(=O)(=O)N1CCC2(CC1)C[C@@H](NC[C@H](O)COc1cccc(S(=O)(=O)C3CC3)c1)CO2 [Compound 171, (S)-1-((R)-8-(4′-(aminomethyl)-4-isopropoxybiphenyl-3-ylsulfonyl)-1-oxa-8-azaspiro[4.5]decan-3-ylamino)-3-(3-(cyclopropylsulfonyl)phenoxy)propan-2-ol] | 0.025 µM |
| CC(C)(C(N)=O)S(=O)(=O)c1cccc(OC[C@@H](O)CN[C@H]2COC3(CCN(S(=O)(=O)c4cnc5ccccc5c4)CC3)C2)c1 [Compound 108, 2-(3-((S)-2-hydroxy-3-((R)-8-(quinolin-3-ylsulfonyl)-1-oxa-8-azaspiro[4.5]decan-3-ylamino)propoxy)phenylsulfonyl)-2-methylpropanamide] | 0.325 µM |
| O=S(=O)(c1cccc(OC[C@@H](O)CN[C@H]2COC3(CCN(S(=O)(=O)c4cnc5c(c4)OCCO5)CC3)C2)c1)C1CC1 [Compound 289, (S)-1-(3-(cyclopropylsulfonyl)phenoxy)-3-((R)-8-(2,3-dihydro-[1,4]dioxino[2,3-b]pyridin-7-ylsulfonyl)-1-oxa-8-azaspiro[4.5]decan-3-ylamino)propan-2-ol] | 0.0658 µM |
| Cc1cc(S(=O)(=O)N2CCC3(CC2)C[C@H](NC[C@H](O)COc2cccc(S(=O)(=O)C4(CO)CC4)c2)CO3)ccc1Br [Compound 196, (S)-1-((S)-8-(4-bromo-3-methylphenylsulfonyl)-1-oxa-8-azaspiro[4.5]decan-3-ylamino)-3-(3-(1-(hydroxymethyl)cyclopropylsulfonyl)phenoxy)propan-2-ol] | 0.0346 µM |
| CCOc1ccc(S(=O)(=O)N2CCC3(CC2)C[C@H](NC[C@H](O)COc2cccc(S(=O)(=O)C4(CO)CC4)c2)CO3)cc1-c1ccc(CN)cc1 [Compound 237, (S)-1-((S)-8-(4′-(aminomethyl)-6-ethoxybiphenyl-3-ylsulfonyl)-1-oxa-8-azaspiro[4.5]decan-3-ylamino)-3-(3-(1-(hydroxymethyl)cyclopropylsulfonyl)phenoxy)propan-2-ol] | 0.082 µM |
| COc1ccc(S(=O)(=O)N2CCC3(CC2)C[C@H](NC[C@H](O)COc2cccc(S(=O)(=O)C(C)(C)CO)c2)CO3)cc1-c1ccc(C2(N)CC2)cc1 [Compound 224, 2-(3-((S)-3-((S)-8-(4′-(1-aminocyclopropyl)-6-methoxybiphenyl-3-ylsulfonyl)-1-oxa-8-azaspiro[4.5]decan-3-ylamino)-2-hydroxypropoxy)phenylsulfonyl)-2-methylpropan-1-ol] | 0.0732 µM |
| CS(=O)(=O)c1cccc(OC[C@H](O)CN[C@H]2COC3(CCN(S(=O)(=O)c4ccc5ccccc5c4)CC3)C2)c1 [Compound 23, (R)-1-(3-(methylsulfonyl)phenoxy)-3-((R)-8-(naphthalen-2-ylsulfonyl)-1-oxa-8-azaspiro[4.5]decan-3-ylamino)propan-2-ol] | 0.242 µM |

Continued by falling IC50, values first:

| IC50 | SMILES |
| --- | --- |
| 0.025 µM | COc1ccc(S(=O)(=O)N2CCC3(CC2)C[C@@H](NC[C@H](O)COc2cccc(S(=O)(=O)C4(CO)CC4)c2)CO3)cc1-c1ccc(C2(N)CC2)cc1 [Compound 199, (S)-1-((R)-8-(4′-(1-aminocyclopropyl)-6-methoxybiphenyl-3-ylsulfonyl)-1-oxa-8-azaspiro[4.5]decan-3-ylamino)-3-(3-(1-(hydroxymethyl)cyclopropylsulfonyl)phenoxy)propan-2-ol] |
| 0.0236 µM | CS(=O)(=O)c1cccc(OC[C@@H](O)CNC2COC3(CCN(S(=O)(=O)c4cccc(-c5ccccn5)c4)CC3)C2)c1 (stereo partly drawn) [Compound 45, (2S)-1-(3-(methylsulfonyl)phenoxy)-3-(8-(3-(pyridin-2-yl)phenylsulfonyl)-1-oxa-8-azaspiro[4.5]decan-3-ylamino)propan-2-ol] |
| 0.0215 µM | Cc1cc(-c2cccc(S(=O)(=O)N3CCC4(CC3)CC(NC[C@H](O)COc3cccc(S(C)(=O)=O)c3)CO4)c2)ccn1 (stereo partly drawn) [Compound 44, (2S)-1-(8-(3-(2-methylpyridin-4-yl)phenylsulfonyl)-1-oxa-8-azaspiro[4.5]decan-3-ylamino)-3-(3-(methylsulfonyl)phenoxy)propan-2-ol] |
| 0.0175 µM | NCc1ccc(-c2ccc(F)c(S(=O)(=O)N3CCC4(CC3)C[C@@H](NC[C@H](O)COc3cccc(S(=O)(=O)C5(CO)CC5)c3)CO4)c2)cc1 [Compound 169, (S)-1-((R)-8-(4′-(aminomethyl)-4-fluorobiphenyl-3-ylsulfonyl)-1-oxa-8-azaspiro[4.5]decan-3-ylamino)-3-(3-(1-(hydroxymethyl)cyclopropylsulfonyl)phenoxy)propan-2-ol] |
| 0.0173 µM | O=c1c(S(=O)(=O)N2CCC3(CC2)C[C@@H](NC[C@H](O)COc2cccc(S(=O)(=O)C4CC4)c2)CO3)c[nH]c2ccccc12 [Compound 326, 3-((R)-3-((S)-3-(3-(cyclopropylsulfonyl)phenoxy)-2-hydroxypropylamino)-1-oxa-8-azaspiro[4.5]decan-8-ylsulfonyl)quinolin-4(1H)-one] |
| 0.0165 µM | O=S(=O)(c1cccc(OC[C@@H](O)CN[C@H]2COC3(CCN(S(=O)(=O)c4cnc5cn[nH]c5c4)CC3)C2)c1)C1CC1 [Compound 319, (S)-1-((R)-8-(1H-pyrazolo[4,3-b]pyridin-6-ylsulfonyl)-1-oxa-8-azaspiro[4.5]decan-3-ylamino)-3-(3-(cyclopropylsulfonyl)phenoxy)propan-2-ol] |
| 0.0116 µM | COc1cc(-c2ccc(CN)cc2)cc(S(=O)(=O)N2CCC3(CC2)C[C@H](NC[C@H](O)COc2cccc(S(=O)(=O)C4CC4)c2)CO3)c1 [Compound 229, (S)-1-((S)-8-(4′-(aminomethyl)-5-methoxybiphenyl-3-ylsulfonyl)-1-oxa-8-azaspiro[4.5]decan-3-ylamino)-3-(3-(cyclopropylsulfonyl)phenoxy)propan-2-ol] |
